# Laboratory results taken from paper PMC8652888, “Angiogenesis, Anti-Tumor, and Anti-Metastatic Activity of Novel α-Substituted Hetero-Aromatic Chalcone Hybrids as Inhibitors of Microtubule Polymerization” (Frontiers in Chemistry, 2021).
# How the values were obtained:
# U937 = assay: Antiproliferative activity, CCK-8 assay; assay type: cell-based; conditions: Homo sapiens, U-937; 72 h, triplicate, mean ± SD; read-out: IC50 ± SD, U937
# Procedure: (§1) The synthesized compounds were first evaluated for their cytotoxic effect on MCF-7 (human breast adenocarcinoma), U937 (histiocytic lymphoma cancer), HepG2 (human liver cancer) cells, and MGC-803 (human gastric cancer) using the SRB and CCK-8 assay. As reference compounds CA-4 and colchicine were included.
# (§2) The primary tumor cells were purchased from a professional biomedical company. First, the primary tumor cells were incubated in a cell culture incubator at 37°C and 5% CO2. After the cell fusion reached 85%–95%, subculture was performed, and the tumor cells obtained at this time were used for subsequent related experiments. The CCK-8 method was used to inhibit the proliferation of U937 tumor cells, and the SRB method was used to inhibit the proliferation of MCF7 and HepG2 tumor cells.
# (§3) The cells in the logarithmic growth phase were seeded in a 96-well plate at 8,000/well, and the drug-containing medium and cell suspension were added to the well. Three wells were added with the blank medium as the blank group. The 96-well plate was incubated for 72 h in a 37°C, 5% CO2 incubator. The 10 μl of CCK-8 dye solution was added to each well, and the incubation continued for 3–4 h.
# HepG2 = assay: Antiproliferative activity, SRB assay; assay type: cell-based, human; conditions: Homo sapiens, HepG2; 72 h, triplicate, mean ± SD; read-out: IC50 ± SD, HepG2
# Procedure: as §1, §2
# (§4) Cells were distributed into 96-well plates with a density of 3 × 10^3–4 × 10^3 cells per well and incubated for 24 h in a 5% CO2 incubator at 37°C, followed by treatment with study compounds at different concentrations at 37°C for 72 h. One hundred microliters of 10% (w/v) trichloroacetic acid was added to each well, fixed at 4°C for 30 min, and dried at 65°C. Then 100 μl of 0.4% SRB was added to each well and stained on a shaker for 20 min at room temperature. The excess dye solution was washed with newly prepared 1% glacial acetic acid and dried at 65°C. One hundred fifty microliters of 10 mM unbuffered Trisbase was added to each well of the plate and shaken for 5 min to dissolve the dye. The microplate reader measured the optical density (OD) at a wavelength of 560 nm.
# MCF-7 = assay: Antiproliferative activity, SRB assay; assay type: cell-based, human; conditions: Homo sapiens, MCF7, 72 h, 72 h, triplicate, mean ± SD; read-out: IC50 ± SD, MCF-7;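 further: proliferation of MCF7 cells quantified by sulforhodamine B staining, with optical density read at 560 nm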
# MGC-803 = assay: Antiproliferative activity (SRB and CCK-8 assay); assay type: cell-based; conditions: Homo sapiens, triplicate, mean ± SD, read-out: IC50 ± SD, MGC-803
# Description: as §1
# [1] = system: MCF-7, U937, HepG2 and MGC-803 cells; assay: Antiproliferative activity, cancer cell panel (text summaries); assay type: cell-based, human; conditions: Homo sapiens; U937, MCF-7, HepG2, MGC-803; read-out: IC50 against four cancer cell lines
# Procedure: as §1, §2, §4, §3
SMILES,IC50 (U937),IC50 (HepG2),IC50 (MCF-7),melting point,IC50 (MGC-803),IC50 [1]
"COC(=O)c1cccc2[nH]cc(/C=C/C(=O)c3cc(OC)c(OC)c(OC)c3)c12 [Compound 6d, methyl(E)-3[3-oxo-3-(3,4,5-trimethoxyphenyl)prop-1-en-1-yl]-1H-indole-4-carboxylate]",> 20 µM,> 20 µM,> 20 µM,221.7 to 223.6 °C,> 20 µM,> 20 µM
"COC(=O)c1ccc2[nH]cc(/C=C/C(=O)c3cc(OC)c(OC)c(OC)c3)c2c1 [Compound 6e, methyl(E)-3[3-oxo-3-(3,4,5-trimethoxyphenyl)prop-1-en-1-yl]-1H-indole-5-carboxylate]",> 20 µM,> 20 µM,> 20 µM,218.7 to 220.3 °C,> 20 µM,> 20 µM
